Experimental data from patent US4233309A, “Novel 1-substituted-3-acylpyrrole derivatives, platelet aggregation inhibitors containing them, as active ingredients, and processes for production of said derivatives” (Teijin Limited, priority 1977, dated 1980).
≈ marks a conversion by molar mass, not a printed value.

Tested on: platelet aggregation (platelet-rich plasmas (PRP) of guinea pigs)
Assay: Activity of inhibiting platelet aggregation in vitro, guinea pig PRP, sodium arachidonate as aggregating agent (Table 1)
Format: cell-based, Hartley-strain male guinea pigs
Conditions: Cavia porcellus, sodium arachidonate 0.03 mM final, 37° C., final concentration, read-out: IC50 (minimum concentration of drug which showed a percent inhibition of more than 50%)
Method: Some 1-substituted-3-acylpyrrole derivatives and other drugs were tested for platelet aggregation inhibiting activities in vitro using platelet-rich plasmas (PRP) of man and guinea pigs. The results are shown as minimum concentration of drugs which inhibit more than 50% of platelet aggregation induced by several aggregating agents.
In experiments with PRP of guinea pigs, sodium arachidonate (final concentration 0.03 mM) was used as an aggregating agent. In experiments with human PRP, sodium arachidonate (final concentration 0.1 mM), collagan suspension (final concentration 10 μg/ml), epinephrine solution (final concentration 20 μg/ml; for secondary aggregation), an epinephrine solution (final concentration 2 μg/ml; for primary aggregation) and ADP (final concentration 5 μM) were used as aggregating agents.
In an experiment with guinea pig PRP, citrated blood (containing 0.38% sodium citrate as a final concentration) was withdrawn by cardiac puncture from Hartley-strain male guinea pigs having a body weight of 350 to 600 g. The citrated blood was centrifuged at 1,000 rpm for 10 minutes at room temperature, and the supernatant platelet suspension (PRP) was separated.
The PRP was stored at room temperature, and used as soon as possible. Those which had been stored for more than 4 hours after preparation were not used.
For each test, a drug is dissolved in dimethylsulfoxide to a concentration of 10 mg/ml, and diluted with physiological saline to form 1 ml each of solutions having a concentration of 2500 μg/ml, 1000 μg/ml, 750 μg/ml, 500 μg/ml, 250 μg/ml and 100 μg/ml. A compound having a free carboxylic acid as a residue such as indomethacine and Ibprofen was dissolved in 0.1 M NaHCO3 to form a sodium salt solution having a concentration of 10 mg/ml. Then, the solution was diluted with physiological saline in the same way as above to form a test drug solution.
Arachidonic acid (99% pure, a product of Sigma Co., Ltd.) was dissolved in 0.1 M NaHCO3, and a 3.3 mM solution of sodium arachidonate was prepared. The solution was diluted with physiological saline to a concentration of 1 mM and used in the experiments. The 3.3 mM solution was stored in a refrigerator as a stock solution, and the 1 mM solution was newly prepared from the stock solution every time it was used.
Physiological saline (50 μl) and 50 μl of the aggregating agent solution were added to 400 μl of PRP which had been pre-warmed and stirred at 37° C. in a quvett set in a holder of an aggregometer. Platelet aggregation was thus initiated, and the change of light transmittance through a stirred platelet suspension was recorded for 3 minutes by a recorder joined to the aggregometer. An increase in transmittance after 3 minutes (T0) was used as a parameter of the rate of platelet aggregation in control experiments.
To 400 μl of PRP in a quvett was added 50 μl of a test drug solution. The mixture was pre-incubated and stirred for 2 minutes at 37° C. Then 50 μl of the aggregating agent was added to drug containing PRP and again aggregation responses were recorded as increases in light transmittance after 3 minutes (T1) in the same way as in (1) above. Percent inhibition was calculated from the formula [formula]
For the above in vitro test for the inhibition of platelet aggregation, reference may be had to H. M. Davis, J. Phyllis, K. Paul and W. Terry: Thromb. Res. 11, 217-226 (1977) and R. E. Anderson and J. G. Foulks: Thromb. Haemos. 36, 343-359 (1976).

**Q.** For Cc1cc(C(=O)c2ccccc2)c(C)n1CC(C)O (stereo not shown) [Compound 102, 2-(3-benzoyl-2,5-dimethylpyrrol-1-yl)-1-methylethanol], which IC50 is on record?
**A.** 5 µg/mL (≈ 19.4 µM)
